Format in all cases: biochemical
Assay [1] has as its target T1, recombinant human MAO-A (monoamine oxidase-A) (Homo sapiens, UniProt P21397).
T1 construct: purchased Sigma-Aldrich
T1 sequence (P21397 1-527): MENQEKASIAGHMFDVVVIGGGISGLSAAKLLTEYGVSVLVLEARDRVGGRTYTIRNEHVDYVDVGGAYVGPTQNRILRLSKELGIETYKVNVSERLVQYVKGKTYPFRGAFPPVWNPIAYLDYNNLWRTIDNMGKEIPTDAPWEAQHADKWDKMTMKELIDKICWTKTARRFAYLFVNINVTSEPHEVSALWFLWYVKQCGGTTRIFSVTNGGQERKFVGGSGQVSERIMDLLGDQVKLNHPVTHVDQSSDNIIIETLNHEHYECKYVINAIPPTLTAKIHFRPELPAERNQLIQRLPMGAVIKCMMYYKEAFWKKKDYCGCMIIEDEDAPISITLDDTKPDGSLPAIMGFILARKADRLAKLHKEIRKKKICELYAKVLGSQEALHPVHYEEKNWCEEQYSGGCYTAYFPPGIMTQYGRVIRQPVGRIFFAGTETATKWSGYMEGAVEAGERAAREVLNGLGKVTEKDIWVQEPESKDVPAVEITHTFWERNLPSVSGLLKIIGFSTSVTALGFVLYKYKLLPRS
Briefly: Activity on recombinant human MAO-A, method similar to the VAP-1 assay. Particulars: substrate 0.5 mM tyramine; read-out: Inhibitory Activity (IC50, nM) MAO-A. Summed up: (§1)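 Enzyme in pH 7.4 phosphate buffer; 30 min, 37° C with compound (DMSO <1%); start with 200 uM Amplex Red + 1 U/mL HRP + tyramine 0.5 mM (MAO-A) or benzylamine 1 mM (MAO-B); kinetic read ex 544/em 590, 1-2 h; % rate decrease vs DMSO control → IC50, 4-parameter fit.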

Assay [2] deals with T2, recombinant human DAO (diamine oxidase) (Homo sapiens, UniProt P19801).
T2 construct: purchased R&D systems
T2 sequence (P19801 20-751): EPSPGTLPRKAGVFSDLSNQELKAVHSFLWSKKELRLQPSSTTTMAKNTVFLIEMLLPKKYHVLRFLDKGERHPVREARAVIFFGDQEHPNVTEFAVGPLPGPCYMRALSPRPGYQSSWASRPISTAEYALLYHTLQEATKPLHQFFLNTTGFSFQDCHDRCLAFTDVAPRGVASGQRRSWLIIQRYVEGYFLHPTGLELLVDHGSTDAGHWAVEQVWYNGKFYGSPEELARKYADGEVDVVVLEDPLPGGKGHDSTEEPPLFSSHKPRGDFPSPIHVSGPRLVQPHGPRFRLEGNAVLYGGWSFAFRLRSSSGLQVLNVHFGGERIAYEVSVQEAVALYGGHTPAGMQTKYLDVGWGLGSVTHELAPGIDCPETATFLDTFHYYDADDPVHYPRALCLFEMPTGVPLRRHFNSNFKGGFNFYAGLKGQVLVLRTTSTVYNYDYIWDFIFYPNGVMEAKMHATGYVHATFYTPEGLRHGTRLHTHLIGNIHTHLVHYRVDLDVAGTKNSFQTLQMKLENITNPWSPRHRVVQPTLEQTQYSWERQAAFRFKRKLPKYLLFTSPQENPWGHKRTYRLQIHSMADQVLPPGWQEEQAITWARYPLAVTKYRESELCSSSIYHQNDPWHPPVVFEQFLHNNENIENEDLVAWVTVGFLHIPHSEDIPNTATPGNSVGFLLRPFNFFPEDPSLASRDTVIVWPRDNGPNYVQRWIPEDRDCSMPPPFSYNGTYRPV
Description: Activity on recombinant human DAO, method similar to the VAP-1 assay. The settings on record: substrate 1 mM putrescine; read-out: Inhibitory Activity (IC50, nM) DAO. Summed up: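 Inhibition of recombinant human diamine oxidase (DAO, R&D systems) was assessed by the same approach as the VAP-1 assay, using 1 mM putrescine as substrate. Hydrogen peroxide formed was detected through an HRP-coupled Amplex Red reaction yielding fluorescent resorufin, read at 544 nm excitation and 590 nm emission. IC50 values came from four-parameter logistic fitting in GraphPad Prism.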

In a further assay the target is T3, recombinant human VAP-1 (Homo sapiens, UniProt Q16853).
T3 construct: purchased R&D systems
T3 sequence (Q16853 1-763): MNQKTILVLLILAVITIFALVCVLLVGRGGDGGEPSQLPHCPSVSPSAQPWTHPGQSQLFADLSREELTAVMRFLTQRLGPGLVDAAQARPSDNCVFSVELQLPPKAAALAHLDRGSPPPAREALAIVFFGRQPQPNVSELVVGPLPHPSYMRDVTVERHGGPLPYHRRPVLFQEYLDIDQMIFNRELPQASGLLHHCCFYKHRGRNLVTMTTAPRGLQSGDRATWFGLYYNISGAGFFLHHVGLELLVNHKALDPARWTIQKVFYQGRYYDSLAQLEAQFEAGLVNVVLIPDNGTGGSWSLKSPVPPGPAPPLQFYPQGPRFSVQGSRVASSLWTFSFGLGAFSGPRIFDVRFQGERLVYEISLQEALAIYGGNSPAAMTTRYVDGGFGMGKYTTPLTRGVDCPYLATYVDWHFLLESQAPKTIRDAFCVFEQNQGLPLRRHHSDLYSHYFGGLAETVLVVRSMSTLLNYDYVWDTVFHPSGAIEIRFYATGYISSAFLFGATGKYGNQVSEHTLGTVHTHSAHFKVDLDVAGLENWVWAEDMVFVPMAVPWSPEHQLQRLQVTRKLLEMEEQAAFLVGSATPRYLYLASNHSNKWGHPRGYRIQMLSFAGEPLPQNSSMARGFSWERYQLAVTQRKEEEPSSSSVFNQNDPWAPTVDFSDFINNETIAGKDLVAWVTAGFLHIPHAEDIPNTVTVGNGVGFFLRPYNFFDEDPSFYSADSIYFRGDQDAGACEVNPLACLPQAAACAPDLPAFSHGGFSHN
Briefly: Activity on recombinant human VAP-1, HRP-coupled Amplex Red hydrogen peroxide assay. The settings on record: substrate 1 mM benzylamine; compound incubated with enzyme at 37° C. for 30 minutes; pH 7.4; read-out: Inhibitory Activity (IC50, nM) human VAP-1. A digest of the protocol:
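Enzyme in 50 mM sodium phosphate (pH 7.4) is exposed to test compound for 30 min at 37 °C. Benzylamine (1 mM) with HRP and Amplex Red then starts the reaction, and the fluorescence rate, relative to a DMSO-only control, gives IC50.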

The target in assay [3] is T4, recombinant human MAO-B (monoamine oxidase-B) (Homo sapiens, UniProt P27338).
T4 construct: purchased Sigma-Aldrich
T4 sequence (P27338 1-520): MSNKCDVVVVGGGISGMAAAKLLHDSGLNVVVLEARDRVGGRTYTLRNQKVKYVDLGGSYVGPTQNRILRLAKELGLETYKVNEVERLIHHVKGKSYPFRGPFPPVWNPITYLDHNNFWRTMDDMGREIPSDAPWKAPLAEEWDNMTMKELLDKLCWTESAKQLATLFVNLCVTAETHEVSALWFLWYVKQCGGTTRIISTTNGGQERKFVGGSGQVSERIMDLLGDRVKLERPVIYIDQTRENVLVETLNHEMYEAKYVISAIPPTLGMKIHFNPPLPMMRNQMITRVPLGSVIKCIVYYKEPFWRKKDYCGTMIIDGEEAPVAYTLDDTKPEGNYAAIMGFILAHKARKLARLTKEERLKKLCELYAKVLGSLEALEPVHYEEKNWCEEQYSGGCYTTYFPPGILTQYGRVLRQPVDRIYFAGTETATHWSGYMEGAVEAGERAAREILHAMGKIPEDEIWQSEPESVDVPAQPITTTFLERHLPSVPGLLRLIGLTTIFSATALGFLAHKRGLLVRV
Description: Activity on recombinant human MAO-B, method similar to the VAP-1 assay. Particulars: substrate 1 mM benzylamine; read-out: Inhibitory Activity (IC50, nM) MAO-B. A digest of the protocol: as §1

Each structure is given as a SMILES string. Counter-ions that a name gives are not always drawn. Where only a bound is given, the exact number is not on record here.

Consider `Cc1cc(-c2ccc(Cn3cnn(C/C(=C/F)CN)c3=O)s2)cc2c1OCC(=O)N2` [Example 91, 6-[5-(1-[(2E)-2-(aminomethyl)-3-fluoroprop-2-en-1-yl]-5-oxo-1,5-dihydro-4H-1,2,4-triazol-4-ylmethyl)thiophen-2-yl]-8-methyl-2H-1,4-benzoxazin-3(4H)-one hydrochloride], for which the half-inhibitory concentration (IC50) (commonly the concentration at which inhibition is half-maximal) in assay [1] is more than 10000 nM; in assay [2] it was 340 nM; at recombinant human VAP-1, 0.9 nM; in assay [3], 3200 nM.

As for `NC/C(=C\F)Cn1ncn(Cc2ccc(-c3ccc4c(c3)COC4)s2)c1=O` [Example 193, 2-[(2E)-2-(aminomethyl)-3-fluoroprop-2-en-1-yl]-4-{[5-(1,3-dihydro-2-benzofuran-5-yl)thiophen-2-yl]methyl}-2,4-dihydro-3H-1,2,4-triazol-3-one], the concentration for half-maximal inhibition (IC50) is more than 100000 nM in assay [1], 2000 nM in assay [2], 1 nM on recombinant human VAP-1 and 85 nM in assay [3].

Regarding `NC/C(=C\F)Cn1ncn(Cc2ccc(-c3ccc4c(c3)C(=O)NC4)s2)c1=O` [Example 67, 6-[5-(1-[(2E)-2-(aminomethyl)-3-fluoroprop-2-en-1-yl]-5-oxo-1,5-dihydro-4H-1,2,4-triazol-4-ylmethyl)thiophen-2-yl]-2,3-dihydro-1H-isoindol-1-one hydrochloride], the concentration for half-maximal inhibition (IC50) in assay [1] is more than 100000 nM; in assay [2], 1200 nM; at recombinant human VAP-1, 0.3 nM; in assay [3], 11000 nM.

Take `CCn1cc(-c2ccc(Cn3cnn(C/C(=C/F)CN)c3=O)s2)ccc1=O` [Example 194, 5-[5-({1-[(2E)-2-(aminomethyl)-3-fluoroprop-2-en-1-yl]-5-oxo-1,5-dihydro-4H-1,2,4-triazol-4-yl}methyl)thiophen-2-yl]-1-ethylpyridin-2(1H)-one]: the IC50 in assay [1] is more than 100000 nM; in assay [2] it was 1200 nM; on recombinant human VAP-1 it was 1.6 nM; in assay [3], 1500 nM.

For `CN1C(=O)CCc2cc(-c3ccc4sc(Cn5cnn(C/C(=C/F)CN)c5=O)cc4c3)ccc21` [Example 211, 6-[2-({1-[(2E)-2-(aminomethyl)-3-fluoroprop-2-en-1-yl]-5-oxo-1,5-dihydro-4H-1,2,4-triazol-4-yl}methyl)-1-benzothiophen-5-yl]-1-methyl-3,4-dihydroquinolin-2(1H)-one], the IC50 in assay [1] was 49000 nM; in assay [2], 1000 nM; on recombinant human VAP-1, 1.9 nM; in assay [3], 7900 nM.

`CC1(C)Oc2cc(-c3ccc(Cn4cnn(C/C(=C/F)CN)c4=O)s3)ccc2NC1=O` [Example 87, 7-[5-[[1-[(E)-2-(aminomethyl)-3-fluoro-allyl]-5-oxo-1,2,4-triazol-4-yl]methyl]-2-thienyl]-2,2-dimethyl-4H-1,4-benzoxazin-3-one]: the IC50 in assay [1] is more than 100000 nM; in assay [2] it was 760 nM; on recombinant human VAP-1 it was 0.4 nM; in assay [3], 2700 nM.

As to `CS(=O)(=O)Nc1cccc(-c2ccc(Cn3cnn(C/C(=C/F)CN)c3=O)s2)c1` [Example 177, N-{3-[5-({1-[(2E)-2-(aminomethyl)-3-fluoroprop-2-en-1-yl]-5-oxo-1,5-dihydro-4H-1,2,4-triazol-4-yl}methyl)thiophen-2-yl]phenyl}methansulfonamide], the IC50 in assay [1] is more than 100000 nM; in assay [2], 570 nM; on recombinant human VAP-1, 1.5 nM; in assay [3] it was 300 nM.

Consider `Cn1cnc2cc(/C=C/c3ccc(Cn4cnn(C/C(=C/F)CN)c4=O)s3)cnc21` [Example 123, 2-[(E)-2-(aminomethyl)-3-fluoro-allyl]-4-[[5-[(E)-2-(3-methylimidazo[4,5-b]pyridin-6-yl)vinyl]-2-thienyl]methyl]-1,2,4-triazol-3-one hydrochloride], for which the IC50 was more than 100000 nM in assay [1], 250 nM in assay [2], 0.6 nM at recombinant human VAP-1 and more than 10000 nM in assay [3].

The values are drawn from patent US11780830B2, “Triazolone derivatives or salts thereof and pharmaceutical compositions comprising the same” (YUHAN CORPORATION, priority 2018, dated 2023).
